{
  "source": "ChEMBL document CHEMBL1201862",
  "about": "“PubChem BioAssay data set” (2004)",
  "test_in_all_cases": "inhibition of tumour cell growth, NCI panel, 48 h",
  "key": {"[1]": {"tested_on": "786-0"}, "[2]": {"tested_on": "HCT-116"}, "[3]": {"tested_on": "HOP-62"}, "[4]": {"tested_on": "KM12"}, "[5]": {"tested_on": "HCC 2998"}, "[6]": {"tested_on": "HT-29"}, "[7]": {"tested_on": "OVCAR-4"}, "[8]": {"tested_on": "UACC-62"}, "[9]": {"tested_on": "NCI-H522"}, "[10]": {"tested_on": "OVCAR-3"}, "[11]": {"tested_on": "SF-295"}, "[12]": {"tested_on": "DU-145"}, "[13]": {"tested_on": "IGROV-1"}, "[14]": {"tested_on": "SW-620"}, "[15]": {"tested_on": "BT-549"}, "[16]": {"tested_on": "CAKI-1"}, "[17]": {"tested_on": "NCI-H460"}, "[18]": {"tested_on": "UACC-257"}, "[19]": {"tested_on": "SR"}, "[20]": {"tested_on": "SNB-19"}, "[21]": {"tested_on": "NCI-H226"}, "[22]": {"tested_on": "MDA-N"}, "[23]": {"tested_on": "NCI/ADR-RES"}, "[24]": {"tested_on": "UO-31"}, "[25]": {"tested_on": "TK-10"}, "[26]": {"tested_on": "SF-268"}, "[27]": {"tested_on": "U-251"}, "[28]": {"tested_on": "SF-539"}, "[29]": {"tested_on": "SK-MEL-5"}, "[30]": {"tested_on": "SK-MEL-28"}, "[31]": {"tested_on": "SN12C"}, "[32]": {"tested_on": "MDA-MB-231"}, "[33]": {"tested_on": "NCI-H23"}, "[34]": {"tested_on": "COLO 205"}, "[35]": {"tested_on": "T47D"}, "[36]": {"tested_on": "LOX IMVI"}, "[37]": {"tested_on": "SK-OV-3"}, "[38]": {"tested_on": "HL-60"}, "[39]": {"tested_on": "OVCAR-8"}, "[40]": {"tested_on": "HCT-15"}, "[41]": {"tested_on": "ACHN"}, "[42]": {"tested_on": "EKVX"}, "[43]": {"tested_on": "MCF7"}, "[44]": {"tested_on": "RXF 393"}, "[45]": {"tested_on": "RPMI-8226"}, "[46]": {"tested_on": "A549"}, "[47]": {"tested_on": "SNB-75"}, "[48]": {"tested_on": "K562"}, "[49]": {"tested_on": "M14"}, "[50]": {"tested_on": "MOLT-4"}, "[51]": {"tested_on": "Malme-3M"}, "[52]": {"tested_on": "CCRF-CEM"}, "[53]": {"tested_on": "Hs-578T"}, "[54]": {"tested_on": "OVCAR-5"}, "[55]": {"tested_on": "SK-MEL-2"}, "[56]": {"tested_on": "A498"}, "[57]": {"tested_on": "HOP-92"}, "[58]": {"tested_on": "MDA-MB-435"}, "[59]": {"tested_on": "PC-3"}},
  "note": "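Where inhibition never reached the appropriate level, the endpoint shown equals the highest concentration tested. Otherwise, values were interpolated linearly from a five-concentration, 48-hour dose response in 96-well plates. Abbreviation: GI50, concentration required for 50% inhibition of growth.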 Active and inactive are the calls of the source. Cut-off read from the data, not from the text of the source: active = GI50 up to about 1.1 µM and inactive = higher.",
  "data": [
    {"smiles": "CC(=O)c1c(SCCN2CCOCC2)n(-c2ccccc2)c(=S)n(-c2ccccc2)c1=O", "values": [
      {"measurement": "GI50", "setting": "[1]", "value": "11.5 µM (inactive)"},
      {"measurement": "GI50", "setting": "[2]", "value": "16.1 µM (inactive)"},
      {"measurement": "GI50", "setting": "[3]", "value": "26.2 µM (inactive)"},
      {"measurement": "GI50", "setting": "[4]", "value": "> 39.7 µM (inactive)"},
      {"measurement": "GI50", "setting": "[5]", "value": "14.3 µM (inactive)"},
      {"measurement": "GI50", "setting": "[6]", "value": "23.8 µM (inactive)"},
      {"measurement": "GI50", "setting": "[7]", "value": "> 46.2 µM (inactive)"},
      {"measurement": "GI50", "setting": "[8]", "value": "15.5 µM (inactive)"},
      {"measurement": "GI50", "setting": "[9]", "value": "21.8 µM (inactive)"},
      {"measurement": "GI50", "setting": "[10]", "value": "14.8 µM (inactive)"},
      {"measurement": "GI50", "setting": "[11]", "value": "> 62.7 µM (inactive)"},
      {"measurement": "GI50", "setting": "[12]", "value": "8.99 µM (inactive)"},
      {"measurement": "GI50", "setting": "[13]", "value": "16.9 µM (inactive)"},
      {"measurement": "GI50", "setting": "[14]", "value": "20.7 µM (inactive)"},
      {"measurement": "GI50", "setting": "[15]", "value": "21.1 µM (inactive)"},
      {"measurement": "GI50", "setting": "[16]", "value": "24.3 µM (inactive)"},
      {"measurement": "GI50", "setting": "[17]", "value": "24.4 µM (inactive)"},
      {"measurement": "GI50", "setting": "[18]", "value": "15.4 µM (inactive)"},
      {"measurement": "GI50", "setting": "[19]", "value": "28.3 µM (inactive)"},
      {"measurement": "GI50", "setting": "[20]", "value": "> 40.9 µM (inactive)"},
      {"measurement": "GI50", "setting": "[21]", "value": "> 53.1 µM (inactive)"},
      {"measurement": "GI50", "setting": "[22]", "value": "18.8 µM (inactive)"},
      {"measurement": "GI50", "setting": "[23]", "value": "> 57 µM (inactive)"},
      {"measurement": "GI50", "setting": "[24]", "value": "14.1 µM (inactive)"},
      {"measurement": "GI50", "setting": "[25]", "value": "17.2 µM (inactive)"},
      {"measurement": "GI50", "setting": "[26]", "value": "20.2 µM (inactive)"},
      {"measurement": "GI50", "setting": "[27]", "value": "31.2 µM (inactive)"},
      {"measurement": "GI50", "setting": "[28]", "value": "21.6 µM (inactive)"},
      {"measurement": "GI50", "setting": "[29]", "value": "17.3 µM (inactive)"},
      {"measurement": "GI50", "setting": "[30]", "value": "20.9 µM (inactive)"},
      {"measurement": "GI50", "setting": "[31]", "value": "16.9 µM (inactive)"},
      {"measurement": "GI50", "setting": "[32]", "value": "19.1 µM (inactive)"},
      {"measurement": "GI50", "setting": "[33]", "value": "27.6 µM (inactive)"},
      {"measurement": "GI50", "setting": "[34]", "value": "21.5 µM (inactive)"},
      {"measurement": "GI50", "setting": "[35]", "value": "17.6 µM (inactive)"},
      {"measurement": "GI50", "setting": "[36]", "value": "8.39 µM (inactive)"},
      {"measurement": "GI50", "setting": "[37]", "value": "> 48.6 µM (inactive)"},
      {"measurement": "GI50", "setting": "[38]", "value": "28.5 µM (inactive)"},
      {"measurement": "GI50", "setting": "[39]", "value": "19.3 µM (inactive)"},
      {"measurement": "GI50", "setting": "[40]", "value": 19.5, "unit": "µM"},
      {"measurement": "GI50", "setting": "[41]", "value": "14.8 µM (inactive)"},
      {"measurement": "GI50", "setting": "[42]", "value": "48.2 µM (inactive)"},
      {"measurement": "GI50", "setting": "[43]", "value": "2.21 µM (inactive)"},
      {"measurement": "GI50", "setting": "[44]", "value": "11.9 µM (inactive)"},
      {"measurement": "GI50", "setting": "[45]", "value": "8.38 µM (inactive)"},
      {"measurement": "GI50", "setting": "[46]", "value": "35.2 µM (inactive)"},
      {"measurement": "GI50", "setting": "[47]", "value": "22.3 µM (inactive)"},
      {"measurement": "GI50", "setting": "[48]", "value": "14.1 µM (inactive)"},
      {"measurement": "GI50", "setting": "[49]", "value": "16.1 µM (inactive)"},
      {"measurement": "GI50", "setting": "[50]", "value": "16 µM (inactive)"},
      {"measurement": "GI50", "setting": "[51]", "value": "28.2 µM (inactive)"},
      {"measurement": "GI50", "setting": "[52]", "value": "10.8 µM (inactive)"},
      {"measurement": "GI50", "setting": "[53]", "value": "39.7 µM (inactive)"},
      {"measurement": "GI50", "setting": "[54]", "value": "> 100 µM (inactive)"},
      {"measurement": "GI50", "setting": "[55]", "value": "20.2 µM (inactive)"},
      {"measurement": "GI50", "setting": "[56]", "value": "11.5 µM (inactive)"},
      {"measurement": "GI50", "setting": "[57]", "value": "15.3 µM (inactive)"},
      {"measurement": "GI50", "setting": "[58]", "value": "16 µM (inactive)"},
      {"measurement": "GI50", "setting": "[59]", "value": "17.3 µM (inactive)"}
    ]}
  ]
}
